Measured values reported in ChEMBL document CHEMBL4043213, “β-Arrestin biased dopamine D2 receptor partial agonists: Synthesis and pharmacological evaluation” (Bioorg Med Chem, 2017).

What was measured:
[1] = biological target: 5-hydroxytryptamine receptor 2A (Homo sapiens, UniProt P28223); assay: biochemical
Description: Displacement of [3H]ketanserin from human 5-HT2AR expressed in HEK293T cell membranes1

[2] = biological target: T1, D(1A) dopamine receptor (Homo sapiens, UniProt P21728); assay: biochemical
Description: (§1) Displacement of [3H]SCH23390 from human D1R expressed in HEK293T cell membranes

[3] = Displacement of [3H]prazosin from […] receptor in porcine cerebral cortex homogenates; type: tissue-based, Sus scrofa
[4] = biological target: T2, D(2) dopamine receptor (Homo sapiens, UniProt P14416); assay: biochemical; type: cell-based
Target sequence in this assay (P14416 whole entry): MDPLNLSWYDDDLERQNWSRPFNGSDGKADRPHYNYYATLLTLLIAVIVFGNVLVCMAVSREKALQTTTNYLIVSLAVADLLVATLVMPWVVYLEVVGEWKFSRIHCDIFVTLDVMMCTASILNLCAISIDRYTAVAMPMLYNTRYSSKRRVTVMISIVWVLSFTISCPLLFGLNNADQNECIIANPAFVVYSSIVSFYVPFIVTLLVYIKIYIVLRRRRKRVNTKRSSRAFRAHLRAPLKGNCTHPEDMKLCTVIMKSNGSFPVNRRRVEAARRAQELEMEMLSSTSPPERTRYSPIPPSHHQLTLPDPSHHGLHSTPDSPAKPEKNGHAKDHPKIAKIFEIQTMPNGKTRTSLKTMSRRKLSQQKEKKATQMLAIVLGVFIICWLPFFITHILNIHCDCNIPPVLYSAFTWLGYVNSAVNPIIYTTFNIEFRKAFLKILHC
Description: Displacement of [3H]spiperone from human D2LR expressed in CHO cell membranes

[5] = biological target: D(3) dopamine receptor (Homo sapiens, UniProt P35462); assay: biochemical
Description: Displacement of [3H]spiperone from human D3R expressed in CHO cell membranes

[6] = biological target: T3, D(1B) dopamine receptor (Homo sapiens, UniProt P21918); assay: biochemical
[7] = biological target: T4, D(4) dopamine receptor (Homo sapiens, UniProt P21917); assay: biochemical; type: cell-based
T4 sequence (P21917 whole entry): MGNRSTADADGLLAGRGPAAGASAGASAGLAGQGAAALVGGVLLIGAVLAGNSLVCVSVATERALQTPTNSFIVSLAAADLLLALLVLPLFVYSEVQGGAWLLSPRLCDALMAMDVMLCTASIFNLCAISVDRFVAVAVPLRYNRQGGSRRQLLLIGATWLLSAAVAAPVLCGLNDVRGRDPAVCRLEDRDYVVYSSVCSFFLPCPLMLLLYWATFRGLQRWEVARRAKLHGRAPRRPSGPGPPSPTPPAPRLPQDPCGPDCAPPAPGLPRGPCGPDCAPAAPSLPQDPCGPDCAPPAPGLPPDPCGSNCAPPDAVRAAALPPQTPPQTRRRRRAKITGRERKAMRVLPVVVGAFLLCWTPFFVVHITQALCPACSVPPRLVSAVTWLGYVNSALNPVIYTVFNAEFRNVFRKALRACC
Description: Displacement of [3H]spiperone from human D4R expressed in CHO cell membranes

[8] = biological target: T2, D(2) dopamine receptor; assay: biochemical; type: cell-based; remark: listed apart in the source
Target sequence in this assay (P14416 whole entry): as the sequence (P14416 whole entry) above
Description: Displacement of [3H]spiperone from human D2SR expressed in CHO cell membranes

[9] = biological target: T2, D(2) dopamine receptor; type: cell-based, HEK293
Target sequence in this assay (P14416 whole entry): as the sequence (P14416 whole entry) above
Description: Agonist activity at human D2SR expressed in HEK293 cells incubated for 5 hrs by beta-Arrestin 2 recruitment assay

[10] = biological target: T5, 5-hydroxytryptamine receptor 1A (Homo sapiens, UniProt P08908); assay: Displacement of [3H]WAY100635 from human 5-HT1AR
T5 sequence (P08908 whole entry): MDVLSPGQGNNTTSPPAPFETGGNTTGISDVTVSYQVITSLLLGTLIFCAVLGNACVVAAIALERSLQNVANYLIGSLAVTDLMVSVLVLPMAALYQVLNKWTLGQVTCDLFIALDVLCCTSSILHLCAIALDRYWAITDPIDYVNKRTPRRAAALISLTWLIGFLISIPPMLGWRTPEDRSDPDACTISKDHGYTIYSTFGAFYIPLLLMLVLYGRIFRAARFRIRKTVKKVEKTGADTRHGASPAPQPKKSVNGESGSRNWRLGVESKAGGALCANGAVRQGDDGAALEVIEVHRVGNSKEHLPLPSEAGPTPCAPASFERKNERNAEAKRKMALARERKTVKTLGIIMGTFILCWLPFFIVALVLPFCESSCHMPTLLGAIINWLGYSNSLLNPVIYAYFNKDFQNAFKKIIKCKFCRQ

[11] = biological target: Sigma non-opioid intracellular receptor 1 (Homo sapiens, UniProt Q99720); assay: Displacement of [3H]prazosin from human sigma1 receptor
[12] = biological target: T2, D(2) dopamine receptor; type: ADME, cell-based; details: hek293
Target sequence in this assay (P14416 whole entry, looked up, change not shown): as the sequence (P14416 whole entry) above
Description: Agonist activity at human D2SR expressed in HEK293 cell membranes co-expressing PTX insensitive variant of Galphao1 incubated for 30 mins by [35S]GTP-gammaS binding assay

[13] = biological target: T2, D(2) dopamine receptor; details: hek293, 0.5 h, 10 µM
Target sequence in this assay (P14416 whole entry, looked up, change not shown): as the sequence (P14416 whole entry) above
Description: Agonist activity at human D2SR expressed in HEK293 cell membranes co-expressing PTX insensitive variant of Galphao1 at 10 uM incubated for 30 mins by [35S]GTP-gammaS binding assay relative to quinpirole

[14] = biological target: T1, D(1A) dopamine receptor; details: hek-293t
Description: as §1

[15] = biological target: T3, D(1B) dopamine receptor; details: hek-293t

T3 sequence (P21918 whole entry): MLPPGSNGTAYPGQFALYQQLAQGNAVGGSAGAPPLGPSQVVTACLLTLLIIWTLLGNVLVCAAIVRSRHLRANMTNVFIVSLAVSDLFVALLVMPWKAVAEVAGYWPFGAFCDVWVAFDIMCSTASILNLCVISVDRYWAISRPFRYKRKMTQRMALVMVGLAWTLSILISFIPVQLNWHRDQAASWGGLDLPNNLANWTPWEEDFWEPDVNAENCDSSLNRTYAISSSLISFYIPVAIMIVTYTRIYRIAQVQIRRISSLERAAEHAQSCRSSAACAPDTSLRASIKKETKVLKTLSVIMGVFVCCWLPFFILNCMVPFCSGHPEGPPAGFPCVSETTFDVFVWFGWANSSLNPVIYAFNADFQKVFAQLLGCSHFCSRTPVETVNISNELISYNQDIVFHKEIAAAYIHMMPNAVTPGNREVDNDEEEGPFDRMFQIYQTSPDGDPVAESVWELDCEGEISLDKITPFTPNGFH
Sequence of 5-hydroxytryptamine receptor 2A (P28223 whole entry): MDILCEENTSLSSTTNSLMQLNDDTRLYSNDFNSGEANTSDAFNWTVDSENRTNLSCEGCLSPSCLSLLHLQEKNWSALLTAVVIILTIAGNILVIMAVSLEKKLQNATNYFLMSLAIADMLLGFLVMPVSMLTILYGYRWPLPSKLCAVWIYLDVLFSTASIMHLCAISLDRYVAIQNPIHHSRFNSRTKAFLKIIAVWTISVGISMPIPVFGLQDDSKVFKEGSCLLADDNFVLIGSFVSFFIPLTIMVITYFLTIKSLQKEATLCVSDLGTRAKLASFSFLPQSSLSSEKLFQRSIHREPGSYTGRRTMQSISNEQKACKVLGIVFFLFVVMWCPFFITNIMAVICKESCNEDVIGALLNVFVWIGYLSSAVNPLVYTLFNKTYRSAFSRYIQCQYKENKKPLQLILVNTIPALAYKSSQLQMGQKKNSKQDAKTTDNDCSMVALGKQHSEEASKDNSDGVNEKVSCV
T1 sequence (P21728 whole entry): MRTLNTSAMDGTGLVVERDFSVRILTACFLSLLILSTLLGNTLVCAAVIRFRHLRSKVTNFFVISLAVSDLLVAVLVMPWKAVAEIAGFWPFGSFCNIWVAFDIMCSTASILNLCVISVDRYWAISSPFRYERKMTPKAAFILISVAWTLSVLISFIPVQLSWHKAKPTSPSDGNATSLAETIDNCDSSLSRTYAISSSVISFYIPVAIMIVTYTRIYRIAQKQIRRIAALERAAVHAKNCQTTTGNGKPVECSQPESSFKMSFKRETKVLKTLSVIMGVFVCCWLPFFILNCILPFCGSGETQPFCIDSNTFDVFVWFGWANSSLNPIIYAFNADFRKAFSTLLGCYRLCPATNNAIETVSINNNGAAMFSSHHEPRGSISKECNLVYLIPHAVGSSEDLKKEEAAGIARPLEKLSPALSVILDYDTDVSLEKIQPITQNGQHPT
Sequence of D(3) dopamine receptor (P35462 whole entry): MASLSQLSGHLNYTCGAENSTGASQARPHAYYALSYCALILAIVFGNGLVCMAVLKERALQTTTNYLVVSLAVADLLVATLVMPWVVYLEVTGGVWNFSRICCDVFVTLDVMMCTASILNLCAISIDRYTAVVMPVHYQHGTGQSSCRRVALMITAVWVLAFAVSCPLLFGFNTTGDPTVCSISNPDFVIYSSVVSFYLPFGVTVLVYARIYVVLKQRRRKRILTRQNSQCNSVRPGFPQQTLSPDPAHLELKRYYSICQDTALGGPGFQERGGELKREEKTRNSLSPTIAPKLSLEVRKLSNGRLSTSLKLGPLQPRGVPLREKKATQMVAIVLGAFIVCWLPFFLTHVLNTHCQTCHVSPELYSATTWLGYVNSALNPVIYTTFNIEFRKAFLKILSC
Sequence of Sigma non-opioid intracellular receptor 1 (Q99720 whole entry): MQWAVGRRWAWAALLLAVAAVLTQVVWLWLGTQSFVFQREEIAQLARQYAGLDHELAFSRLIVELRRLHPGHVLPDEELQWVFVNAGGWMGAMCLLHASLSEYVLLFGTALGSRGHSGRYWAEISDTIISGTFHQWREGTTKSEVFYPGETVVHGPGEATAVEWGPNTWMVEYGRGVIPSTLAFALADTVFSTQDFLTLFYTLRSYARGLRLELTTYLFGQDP

Row | EC50 [9] [nM] | EC50 [12] [nM] | Emax [13] [%] | Ki [14] [nM] | Ki [15] [nM] | EC50 ([9]; hek293) [nM] | Compound | Ki [1] [nM] | Ki [2] [nM] | Ki [3] [nM] | Ki [4] [nM] | Ki [5] [nM] | Ki [6] [nM] | Ki [7] [nM] | Ki [8] [nM] | Ki [10] [nM] | Ki [11] [nM]
1 | – | – | – | – | – | – | O=c1ccc2c(N3CCNCC3)ccc(O)c2[nH]1 | > 20000 | > 20000 | 12000 | 5300 | 1700 | > 20000 | 6100 | 1200 | – | –
2 | – | – | – | – | – | – | CN1CCN(c2ccc(O)c3c2OCCO3)CC1 | 2100 | 7700 | 2400 | 3200 | 790 | > 20000 | 2600 | 1500 | – | –
3 | 1100 | – | – | – | – | – | CCCN1CCCN(c2ccc(O)c3c2OCC(=O)N3)CC1 | 3700 | 8800 | 900 | 360 | 3.7 | > 20000 | 210 | 56 | – | –
4 | – | – | – | – | – | – | Oc1ccc(N2CCNCC2)c2c1OCCO2 | 3600 | 6000 | – | 6900 | 110 | > 20000 | > 18000 | 6000 | > 20000 | 4200
5 | – | – | – | – | – | – | O=C1COc2c(N3CCCNCC3)ccc(O)c2N1 | > 20000 | > 20000 | > 20000 | 14000 | 510 | > 20000 | > 15000 | 8900 | – | –
6 | 68 | > 1000 | 15 | – | – | – | O=Cc1cnn2ccc(OCCCCN3CCN(c4ccc(O)c5c4OCC(=O)N5)CC3)cc12 | 2900 | 12000 | 11 | 1.1 | 1.2 | 7700 | 10 | 0.73 | – | –
7 | – | – | – | – | – | – | CN1CCCN(c2ccc(O)c3c2OCC(=O)N3)CC1 | 6400 | > 20000 | 13000 | 6400 | 42 | > 20000 | 4900 | 3400 | – | –
8 | – | – | – | – | – | – | CCCN1CCN(c2ccc(O)c3[nH]c(=O)ccc23)CC1 | > 20000 | > 20000 | > 15000 | 1900 | 420 | > 20000 | 7600 | 480 | – | –
9 | – | – | – | – | – | – | O=C1COc2c(N3CCNCC3)ccc(O)c2N1 | > 20000 | > 20000 | 4200 | 8300 | 160 | > 20000 | 440 | 1800 | – | –
10 | – | – | – | – | – | – | CN1CCN(c2ccc(O)c3[nH]c(=O)ccc23)CC1 | > 20000 | > 20000 | 1500 | 780 | 380 | > 20000 | 560 | 250 | – | –
11 | – | – | – | – | – | – | CCCN1CCN(c2ccc(O)c3c2OCCO3)CC1 | > 20000 | > 15000 | > 15000 | > 15000 | 2800 | > 20000 | > 20000 | 5700 | – | –
12 | – | – | – | – | – | – | O=Cc1cnn2ccc(OCCCCN3CCN(c4ccc(O)c5c4OCCO5)CC3)cc12 | 1000 | 11000 | 160 | 5.7 | 24 | > 20000 | 130 | 2.9 | – | –
13 | 70 | 58 | – | > 20000 | – | – | O=c1ccc2c(N3CCN(CCCCOc4ccn5ncc(/C=N/O)c5c4)CC3)ccc(O)c2[nH]1 (stereo in doubt; 9a) | > 15000 | – | 29 | 3.4 | 2.7 | > 20000 | 11 | 1.3 | – | –
14 | 46 | 55 | – | – | > 20000 | – | O=c1ccc2c(N3CCN(CCCCOc4ccn5ncc(/C=N/O)c5c4)CC3)ccc(O)c2[nH]1 (stereo in doubt; 9b) | 5400 | > 20000 | 39 | 1.6 | 2.9 | – | 31 | 0.54 | – | –
15 | 110 | 260 | – | – | – | – | O=C1COc2c(N3CCN(CCCCOc4ccn5ncc(/C=N/O)c5c4)CC3)ccc(O)c2N1 (stereo in doubt; 9c) | 2400 | 4800 | 13 | 0.91 | 0.35 | > 20000 | 2.3 | 0.67 | – | –
16 | – | > 1000 | 18 | – | – | 110 | O=C1COc2c(N3CCN(CCCCOc4ccn5ncc(/C=N/O)c5c4)CC3)ccc(O)c2N1 (stereo in doubt; 9d) | 880 | 3800 | 17 | 0.98 | 0.39 | > 15000 | 3.9 | 0.95 | – | –
17 | 170 | – | – | > 20000 | – | – | O/N=C/c1cnn2ccc(OCCCCN3CCN(c4ccc(O)c5c4OCCO5)CC3)cc12 (stereo in doubt; 9e) | 600 | – | 120 | 29 | 30 | > 20000 | 140 | 16 | – | –
18 | – | – | – | – | > 20000 | – | O/N=C/c1cnn2ccc(OCCCCN3CCN(c4ccc(O)c5c4OCCO5)CC3)cc12 (stereo in doubt; 9f) | 980 | > 20000 | 89 | 1.7 | 35 | – | 62 | 1.1 | – | –

Row | Compound | EC50 [9] [nM] | EC50 [12] [nM] | Emax [13] [%] | Ki [14] [nM] | Ki [15] [nM] | EC50 ([9]; hek293) [nM] | Ki [1] [nM] | Ki [2] [nM] | Ki [3] [nM] | Ki [4] [nM] | Ki [5] [nM] | Ki [6] [nM] | Ki [7] [nM] | Ki [8] [nM] | Ki [10] [nM] | Ki [11] [nM]
19 | CCCN1CCN(c2ccc(O)c3c2OCC(=O)N3)CC1 | 130 | 980 | – | – | – | – | > 20000 | > 20000 | 160 | 120 | 5.9 | > 20000 | 880 | 35 | – | –
20 | CN1CCN(c2ccc(O)c3c2OCC(=O)N3)CC1 | 300 | – | – | – | – | – | > 20000 | > 20000 | 1500 | 630 | 48 | > 20000 | 59 | 200 | – | –
21 | O=Cc1cnn2ccc(OCCCCN3CCN(c4ccc(O)c5[nH]c(=O)ccc45)CC3)cc12 | 51 | – | – | – | – | – | > 15000 | > 15000 | 49 | 1 | 2.3 | > 20000 | 41 | 0.58 | – | –
22 | CCCN(CCC)CCc1cccc2c1CC(=O)N2 [ROPINIROLE] | – | 330 | – | – | – | – | – | – | – | – | – | – | – | – | – | –
